In patent publication US6482805B2 (Parker Hughes Institute, priority 1998, dated 2002):
Read-outs that look alike come from different tables or passages of the source.

How the values were obtained:
Assay type in all cases: cell-based
[1] = tested on: normal human endocervical epithelial cells; experiment: cells; conditions: 24 h, read-out: Endocervical cells IC50
Description: (§1) The potential cytotoxicity of aryl phosphate derivatives of bromo-methoxy ZDV in comparison to N-9, against normal human ectocervical and endocervical epithelial cells (Clonetics Corporation, San Diego, Calif.), was measured using MTT (3-[4,5-dimethylthiazol-2-yl]-2,5-diphenyl tetrazolium bromide) cell viability assays (Boehringer Mannheim Corp., Indianapolis, Ind.) [see, D'Cruz O J, et al., Mol Hum Reprod 1999; 5:421-432; D'Cruz O J, et al., Contraception 1999; 59 (in press); and Uckun F M, et al., Antimicrob Agents Chemther 1998; 42:383-388]. Briefly, exponentially growing ectocervical and endocervical epithelial cells were seeded into 96-well plate at a density of 2×10^5 cells/well and incubated for 24 h at 37° C. prior to drug exposure. On the day of treatment, culture medium was carefully aspirated from the wells and replaced with fresh medium containing drug concentrations ranging from 3.9 μM to 1000 μm. Triplicate wells were used for each treatment. The cells were incubated with the various compounds for 24 hours at 37° C. in a humidified 5% CO2 atmosphere. To each well, 10 μl of MTT (0.5 mg/ml final concentration) was added and the plates were incubated at 37° C. for 4 hours to allow MTT to form formazan crystals by reacting with metabolically active cells. The formazan crystals were solubilized overnight at 37° C. in a solution containing 10% SDS in 0.01 M HCl. The absorbance of each well was measured in a microtiter reader at 540 nm and a reference wavelength of 690 nm. To translate the OD540 values into the number of live cells in each well, the OD540 values were compared to those of standard OD540 versus cell number curves generated for each cell line. The percent cell survival was calculated using the formula: % survival=live cell number[test]/live cell number[control]×100. The results were expressed as IC50 values. The IC50 was defined as the concentration required for 50% reduction in cell survival. Two separate experiments were performed in triplicate to assess the potential cytotoxicity of spermicidal WHI-07 analogues against ectocervical and endocervical epithelial cells.

[2] = tested on: normal human ectocervical epithelial cells; experiment: cells; conditions: 24 h, read-out: Ectocervical cells IC50
Description: as §1

human sperm = experiment: Sperm motility assay by CASA (Example 1); conditions: for EC50: read-out: EC50, sperm motility
Description: All donor specimens were obtained after informed consent and in compliance with the guidelines of the Wayne Hughes Institute Institutional Review Board. Motile sperm (≧10×10^6/ml), were suspended in 0.5 ml of Biggers, Whitten, and Whittingam's medium (BWW) containing 25 mM HEPES (Irvine Scientific, Santa Ana, Calif.), and 0.3% bovine serum albumin (BSA; Fraction V, Sigma Chemical Co, St. Louis, Mo.) in the presence and absence of serial two-fold dilutions of test substance (300 μM to 4.6 μm) in 1% DMSO. The stock solutions of synthetic WHI compounds were prepared in DMSO (10 mg/ml) and diluted in DMSO to yield the desired concentrations. Corresponding volume of DMSO (1%) was added to control tubes. N-9 was diluted in BWW-0.3% BSA (pH 7.4) to yield the desired concentrations (4.6 to 300 μM). After 3 hours of incubation at 37° C., the percentage of motile sperm was evaluated by computer-assisted sperm analysis (CASA) as described [L. J. Burkman, Fertil. Steril. […] The percent motilities were compared with sham-treated control suspensions of motile sperm. […] Non-linear regression analyses were used to determine the EC50 values from the concentration effect curves using GraphPad PRISM software (San Diego, Calif.).
For evaluating sperm motion kinematics using CASA, 4 μl each of sperm suspension was loaded into two 20-μm Microcell chambers (Conception Technologies) that was placed onto a counting chamber at 37° C. At least 5-8 fields per chamber were scanned for analysis using a Hamilton Thorne Integrated Visual Optical System (IVOS), version 10 instrument (Hamilton Thorne Research Inc., Danvers, Mass.). Each field was recorded for 30 seconds. […] The performance of the analyzer was periodically checked using the play-back function. The attributes of sperm kinematic parameters evaluated included numbers of motile (MOT) and progressively (PRG) motile sperm; curvilinear velocity (VCL; a measure of the total distance traveled by a given sperm during the acquisition divided by the time elapsed); average path velocity (VAP; the spatially averaged path that eliminates the wobble of the sperm head), straight line velocity (VSL; the straight-line distance from beginning to end of track divided by time taken), beat cross frequency (BCF, frequency of sperm head crossing sperm average path), the amplitude of lateral head displacement (ALH; the mean width of sperm head oscillation) and the derivatives, straightness ([…]); linearity (LIN=100×VSL/VCL; departure of sperm track from a straight line). Data from each individual cell track were recorded and analyzed. At least 200 motile sperm were analyzed for each aliquot sampled.

[3] = MTT, mean ± SD of two experiments
[4] = 3 hours incubation at 37° C., CASA
[5] = Homo sapiens, Epithelial cell, MTT, mean ± SD of two experiments

Compound	IC50 [1, 3]	IC50 [2, 3]	EC50 (human sperm; [4])	also measured
5-Bromo-6-methoxy-5,6-dihydro-3′-azidothymidine 5′-[Phenyl methoxyalaninyl phosphate] [WHI-04]	> 1000 µM	> 1000 µM	–	spermicidal activity, in words (human sperm; compared with related derivatives): improved spermicidal activity over WHI-01
5-Bromo-6-methoxy-5,6-dihydro-3′-azidothymidine-5′-[(p-Fluorophenyl methoxyalaninyl phosphate] [WHI-06]	939 ± 157 µM	304 ± 79 µM	15 µM	–
5-bromo-6-methoxy-5,6-dihydro-3 ′-azidothymidine-5 ′-(p-methoxyphenyl) methoxyalaninyl phosphate [WHI-05]	388 ± 38 µM	> 1000 µM	29 µM	–
CCCCCCCCCc1ccc(OCCOCCOCCOCCOCCOCCOCCOCCOCCO)cc1 [Compound N-9, nonoxynol-9, reference compound]	–	–	–	IC50 [1, 5]: 16 ± 5 µM; IC50 [2, 5]: 22 ± 8 µM; EC50 (human sperm; Homo sapiens, Sperm, 3 hours incubation at 37° C., CASA): 81 µM
COC(=O)C(C)NP(=O)(OCC1OC(N2C(=O)NC(=O)C(C)(Br)C2OC)CC1N=[N+]=[N-])Oc1ccc(Br)cc1 (stereo not drawn) [WHI-07, 5-Bromo-6-methoxy-5,6-dihydro-3′-azidothymidine-5′-(p-Bromophenyl Methoxyalaninyl Phosphate)]	–	–	–	IC50 ([1]; Homo sapiens, Epithelial cell): 312 ± 38 µM; IC50 ([2]; Homo sapiens, Epithelial cell): > 1000 µM; EC50 (human sperm; Homo sapiens, Sperm, 3 h): 6 µM
